Data set [1] addresses T1, P-gp (Homo sapiens, UniProt P08183). As to the kind of experiment: Substrate accumulation assays in MCF-7/DX1 cells. It is filed as cell-based.
Data set [2] can be described thus: Solubility in aqueous buffer. As to conditions: as compared to Aba-C10. It is filed as physicochemical.
In data set [3] the target is T1, P-gp. As to the kind of experiment: Inhibition of P-gp-mediated efflux of NBD-Aba in hCMEC/D3 cells. It counts as cell-based.
Data set [4] deals with P-gp. As to conditions: cited from earlier work.

T1 sequence (P08183 whole entry): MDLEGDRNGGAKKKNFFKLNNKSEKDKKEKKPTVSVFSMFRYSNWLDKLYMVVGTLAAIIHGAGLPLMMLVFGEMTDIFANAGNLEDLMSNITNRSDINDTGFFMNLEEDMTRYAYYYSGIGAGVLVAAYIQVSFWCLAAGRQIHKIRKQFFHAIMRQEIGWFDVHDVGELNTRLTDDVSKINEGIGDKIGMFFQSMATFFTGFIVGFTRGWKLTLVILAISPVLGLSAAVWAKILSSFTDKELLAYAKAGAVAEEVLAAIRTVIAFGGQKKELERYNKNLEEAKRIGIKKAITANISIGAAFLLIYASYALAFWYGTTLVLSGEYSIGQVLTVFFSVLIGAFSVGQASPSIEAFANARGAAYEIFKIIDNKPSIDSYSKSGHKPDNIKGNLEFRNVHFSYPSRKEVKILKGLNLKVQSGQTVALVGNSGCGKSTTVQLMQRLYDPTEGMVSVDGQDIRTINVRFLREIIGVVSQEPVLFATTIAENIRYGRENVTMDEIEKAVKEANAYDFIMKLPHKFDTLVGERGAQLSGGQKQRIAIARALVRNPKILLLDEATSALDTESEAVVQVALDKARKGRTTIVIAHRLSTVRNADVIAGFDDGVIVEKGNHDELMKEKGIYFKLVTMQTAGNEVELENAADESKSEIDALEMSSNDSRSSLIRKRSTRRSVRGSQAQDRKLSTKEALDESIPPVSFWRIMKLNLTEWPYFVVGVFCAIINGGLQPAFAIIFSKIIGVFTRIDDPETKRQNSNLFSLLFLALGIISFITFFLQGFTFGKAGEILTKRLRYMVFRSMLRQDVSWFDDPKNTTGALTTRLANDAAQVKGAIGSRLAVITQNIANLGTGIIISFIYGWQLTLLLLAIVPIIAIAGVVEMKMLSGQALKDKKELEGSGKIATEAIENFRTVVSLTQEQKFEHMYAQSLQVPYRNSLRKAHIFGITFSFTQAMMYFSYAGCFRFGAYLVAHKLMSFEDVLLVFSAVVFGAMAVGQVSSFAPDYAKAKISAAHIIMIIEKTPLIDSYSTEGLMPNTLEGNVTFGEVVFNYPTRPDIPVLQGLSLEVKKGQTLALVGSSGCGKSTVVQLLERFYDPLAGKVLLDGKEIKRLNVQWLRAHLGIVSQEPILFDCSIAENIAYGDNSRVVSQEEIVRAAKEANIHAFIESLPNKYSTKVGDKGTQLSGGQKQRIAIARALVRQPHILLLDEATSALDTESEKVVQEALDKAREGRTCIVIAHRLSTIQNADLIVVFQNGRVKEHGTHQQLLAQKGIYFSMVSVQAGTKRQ

As to `Nc1nc(NC2CC2)c2ncn([C@H]3C=C[C@@H](COC(=O)CCCCCCCCC(=O)OC[C@@H]4C=C[C@H](n5cnc6c(NC7CC7)nc(N)nc65)C4)C3)c2n1` [Aba-C8], in data set [1] (NBD-Aba as substrate), the “Fold decrease of potency in MCF-7/DX1 cells versus 12D7-MDR” value is on record as ~6 fold and the “Fold decrease of potency in MCF-7/DX1 cells versus hCMEC/D3” value was “about 3 fold”. The “Inhibition of efflux of each of the substrates in MCF-7/DX1 cells” value in data set [1] (substrates BODIPY-prazosin, doxorubicin, [3H]-daunomycin and NBD-Aba) is “effectively inhibit efflux”. Also, in data set [2], the “Solubility in aqueous buffer” value is listed as “more favorable solubility”.

Consider `Nc1nc(NC2CC2)c2ncn([C@H]3C=C[C@@H](COC(=O)CCCCCCCCCCC(=O)OC[C@@H]4C=C[C@H](n5cnc6c(NC7CC7)nc(N)nc65)C4)C3)c2n1` [Aba-C10], for which the “Fold more potent than monomeric abacavir” value in data set [3] is given as “greater than 500 fold”.

For `Nc1nc(NC2CC2)c2ncn([C@H]3C=C[C@@H](CO)C3)c2n1` [abacavir, reference compound], the “Effect on transport in MCF-7/DX1 cells” value in data set [1] (up to a concentration of 100 µM, data not shown) was “no effect on transport”. In addition, in data set [4], the “Fold increase in brain levels, P-gp-null mice versus wild-type mice” value is given as 20 fold.

The record behind these values is paper PMC3833348 (MedChemComm, 2013).
